Assay results published in US20250388575A1, “HETEROBIFUNCTIONAL COMPOUNDS AND METHODS OF TREATING DISEASE” (Halda Therapeutics OpCo, Inc., priority 2022, published 2025).
Like-named read-outs stand apart in the source and are kept apart here.

Tests used:
[1] = system: T47D cells; assay: Cellular growth inhibition assay for T47D cells, CellTiter-Glo; format: cell-based, human; details: 72 hours treatment, CellTiter-Glo 2.0
Description: T47D cells were purchased from American Type Cell Culture (ATCC Cat #HTB-133) and then seeded on poly-D-lysine coated, black clear-bottom 384-well plates at 3000/well in 25 μL Dulbecco's Modified Eagle Medium (DMEM) supplemented with 10% w/w Fetal bovine serum (FBS), 0.2 units/mL recombinant human insulin (Gibco Cat #12585014), and 1% w/w Pen-Strep. Pen-Strep is a commercially available mixture of penicillin G and streptomycin, which is used in mammalian cell culture media to prevent bacterial contamination. Dulbecco's Modified Eagle Medium (DMEM) supplemented with 10% w/w fetal bovine serum (FBS), 0.2 units/mL recombinant human insulin, and 1% w/w Pen-Strep is herein referred to as Treatment Medium. Following seeding of cells in the plates, the plates were spun at 300×g for 30 seconds, then equilibrated to room temperature for 30 minutes, and then deposited in a humidified tissue culture incubator maintained at 37° C. with 5% CO2.
At 24 hours after seeding of the cells, dilutions of test compound were prepared in DMSO and dissolved in Treatment Medium, to achieve a final DMSO concentration of 0.5% w/w, thereby providing the Test Compound Solution. A 25 μL aliquot of the Test Compound Solution was added to cells in the well plates. An equal volume of a solution containing DMSO and Treatment Medium was used as a negative control. Following treatment of cells with Test Compound Solution or said equal volume of a solution containing DMSO and Treatment Medium, the plates were spun at 300×g for 30 seconds, and then left in an incubator for 72 hours.
At the end of the treatment duration, cell viability was quantified with CellTiter-Glo 2.0 reagent (Promega Cat #G9243). For this purpose, plates were equilibrated to room temperature for 30 minutes, and then 25 μL of CellTiter-Glo 2.0 reagent was added to cells in the plate wells. Plates were then agitated on a shaker for two minutes at 500 rpm and subsequently incubated at room temperature for 10 minutes. Following incubation, the plates were spun at 3000×g for 30 seconds, then sealed with an optical adhesive cover, and luminescence readings were measured with an EnVision Plate Reader (Perkin Elmer).
Data was normalized using zero luminescence for baseline. A four-parameter non-linear regression curve fit was applied to dose-response data in GraphPad Prism data analysis software to determine the half-maximal growth inhibitory concentration (GI50) for each test compound.

[2] = system: T-Rex 293 cell line SC3 cells having increased expression of androgen receptor protein; assay: Cellular growth inhibition, T-Rex 293 SC3 cells with increased androgen receptor expression (doxycycline), CellTiter-Glo; format: cell-based; details: T-Rex 293 SC3 cells with increased androgen receptor expression (exposed to 10 ng/mL doxycycline), 72 hours, CellTiter-Glo; read-out: GI50
Method in brief: (§1)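 SC3, a T-Rex 293 clone with doxycycline-inducible wild-type androgen receptor, was seeded in phenol red-free DMEM with 10% charcoal-dextran FBS, with or without 10 ng/mL doxycycline. Compound added at 24 h (0.5% DMSO) for 72 h at 37° C. CellTiter-Glo 2.0 luminescence; GI50 from four-parameter fit.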

[3] = system: VCaP cells; assay: Cellular growth inhibition assay for VCaP cells, CellTiter-Glo; format: cell-based, human; details: VCaP cells, 72 hours, CellTiter-Glo, read-out: GI50
Method in brief: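 GI50 values come from four-parameter curve fits of luminescence data normalized to a zero baseline. Compound, in medium with 0.5% DMSO, was added one day after plating and left for 72 h before CellTiter-Glo 2.0 addition.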

[4] = system: T-Rex 293 cell line SC3 cells lacking increased expression of androgen receptor protein; assay: Cellular growth inhibition, T-Rex 293 SC3 cells lacking increased androgen receptor expression (no doxycycline), CellTiter-Glo; format: cell-based; details: T-Rex 293 SC3 cells lacking increased androgen receptor expression (not exposed to doxycycline), 72 hours, CellTiter-Glo; read-out: GI50
Method in brief: as §1

GI50 [1] [nM]	GI50 [3] [nM]	GI50 ([1]; Homo sapiens) [nM]	GI50 ([3]; Homo sapiens) [nM]	Compound	GI50 [2] [nM]	GI50 [4] [nM]
< 500	< 500	–	–	CCS(=O)(=O)c1ccc(Oc2cccc(CCCC3CCN(c4ncc(C(=O)N[C@H]5CC[C@H](Oc6ccc(C#N)c(Cl)c6)CC5)cn4)CC3)c2)c(-c2cn(C)c(=O)c3[nH]ccc23)c1 [I-66]	< 500	< 500
–	–	< 500	< 500	CCS(=O)(=O)c1ccc(Oc2ccc(CC3CN(c4ccc(C(=O)N[C@H]5CC[C@H](Oc6ccc(C#N)c(Cl)c6)CC5)nn4)C3)cc2)c(-c2cn(C)c(=O)c3[nH]ccc23)c1 [I-77]	< 500	< 500
–	–	< 500	< 500	CCS(=O)(=O)c1ccc(Oc2ccc(CC3CC4(C3)CN(c3ccc(C(=O)N[C@H]5CC[C@H](Oc6ccc(C#N)c(Cl)c6)CC5)nn3)C4)cc2)c(-c2cn(C)c(=O)c3[nH]ccc23)c1 [I-69]	< 500	< 500
–	–	< 500	< 500	CN(C1CCN(c2ccc(C(=O)N[C@H]3CC[C@H](Oc4ccc(C#N)c(Cl)c4)CC3)nn2)CC1)C1CN(c2cccc(Oc3ccc(C(C)(C)O)cc3-c3cn(C)c(=O)c4[nH]ccc34)c2F)C1 [I-142]	< 500	< 500
< 500	< 500	–	–	Cn1cc(-c2cc(C(C)(C)O)ccc2Oc2ccc(N3CC4(CCN(c5ccc(C(=O)N[C@H]6CC[C@H](Oc7ccc(C#N)c(Cl)c7)CC6)nn5)CC4)C3)cc2)c2cc[nH]c2c1=O [I-144]	< 500	500 to 1500
–	–	< 500	< 500	CCS(=O)(=O)c1ccc(Oc2ccc(CCCC3CCN(c4ccc(C(=O)N[C@H]5CC[C@H](Oc6ccc(C#N)c(Cl)c6)CC5)nn4)CC3)cc2)c(-c2cn(C)c(=O)c3[nH]ccc23)c1 [I-61]	< 500	< 500
1500 to 3000	< 500	–	–	Cn1cc(-c2cc(C(C)(C)O)ccc2Oc2cc(F)c(CCC3CCN(c4ccc(C(=O)N[C@H]5CC[C@H](Oc6ccc(C#N)c(Cl)c6)CC5)nn4)CC3)c(F)c2)c2cc[nH]c2c1=O [I-114]	< 500	> 3000
< 500	< 500	–	–	Cn1cc(-c2cc(C(C)(C)O)ccc2Oc2ccc(CCC3C4CN(c5ccc(C(=O)N[C@H]6CC[C@H](Oc7ccc(C#N)c(Cl)c7)CC6)nn5)CC34)cc2)c2cc[nH]c2c1=O (stereo partly drawn) [I-134]	< 500	> 3000
< 500	> 3000	–	–	CCS(=O)(=O)c1ccc(C(F)(F)c2ccc(CCC3CCN(c4ccc(C(=O)NC5CCC(Oc6ccc(C#N)c(Cl)c6)CC5)nn4)CC3)cc2)c(-c2cn(C)c(=O)c3[nH]ccc23)c1 (stereo not drawn) [I-251, N-((1r,4r)-4-(3-chloro-4-cyanophenoxy)cyclohexyl)-6-(4-(4-((4-(ethylsulfonyl)-2-(6-methyl-7-oxo-6,7-dihydro-1H-pyrrolo[2,3-c]pyridin-4-yl)phenyl)difluoromethyl)phenethyl)piperidin-1-yl)pyridazine-3-carboxamide]	< 500	> 3000
–	–	< 500	< 500	Cn1cc(-c2cc(C(C)(C)O)ccc2Oc2ccc(CC3CN(c4ccc(C(=O)N[C@H]5CC[C@H](Oc6ccc(C#N)c(Cl)c6)CC5)nn4)C3)cc2)c2cc[nH]c2c1=O [I-131]	< 500	< 500
–	–	500 to 1500	500 to 1500	Cn1cc(-c2cc(C3CCS(=O)(=O)CC3)ccc2Oc2ccc(CCC3CCN(c4ccc(C(=O)NC5CCC(Oc6ccc(C#N)c(Cl)c6)CC5)nn4)CC3)cc2)c2cc[nH]c2c1=O (stereo not drawn) [I-250, N-[4-(3-chloro-4-cyano-phenoxy)cyclohexyl]-6-[4-[2-[4-[4-(1,1-dioxothian-4-yl)-2-(6-methyl-7-oxo-1H-pyrrolo[2,3-c]pyridin-4-yl)phenoxy]phenyl]ethyl]-1-piperidyl]pyridazine-3-carboxamide]	< 500	< 500
< 500	< 500	–	–	CCS(=O)(=O)Cc1ccc(Oc2ccc(CCCCC3CCN(c4ccc(C(=O)N[C@H]5CC[C@H](Oc6ccc(C#N)c(Cl)c6)CC5)nn4)CC3)cc2)c(-c2cn(C)c(=O)c3[nH]ccc23)c1 [I-157]	< 500	< 500
< 500	< 500	–	–	CCS(=O)(=O)c1ccc(Oc2ccc(CCC3CCN(c4ccc(C(=O)N[C@H]5CC[C@H](Oc6ccc(C#N)c(Cl)c6)CC5)nn4)CC3)c(OC)c2)c(-c2cn(C)c(=O)c3[nH]ccc23)c1 [I-82]	< 500	< 500
< 500	< 500	–	–	CCS(=O)(=O)c1ccc(Oc2ccc(CCC3CC4(C3)CN(c3ccc(C(=O)N[C@H]5CC[C@H](Oc6ccc(C#N)c(Cl)c6)CC5)nn3)C4)cc2)c(-c2cn(C)c(=O)c3[nH]ccc23)c1 [I-67]	< 500	< 500
–	–	< 500	< 500	CCS(=O)(=O)c1ccc(Oc2ccc(CC3CCN(c4ccc(C(=O)N[C@H]5CC[C@H](Oc6ccc(C#N)c(Cl)c6)CC5)nn4)CC3)c(F)c2)c(-c2cn(C)c(=O)c3[nH]ccc23)c1 [I-80]	< 500	< 500
–	–	< 500	< 500	CCS(=O)(=O)c1ccc(Oc2ccc(CC3CC4(CCN(c5ccc(C(=O)N[C@H]6CC[C@H](Oc7ccc(C#N)c(Cl)c7)CC6)nn5)CC4)C3)c(F)c2)c(-c2cn(C)c(=O)c3[nH]ccc23)c1 [I-81]	< 500	< 500
–	–	< 500	500 to 1500	CCS(=O)(=O)c1ccc(Oc2cccc(CCCOC3CC4(C3)CN(c3cnc(C(=O)N[C@H]5CC[C@H](Oc6ccc(C#N)c(Cl)c6)CC5)cn3)C4)c2F)c(-c2cn(C)c(=O)c3[nH]ccc23)c1 [I-48]	< 500	< 500
–	–	< 500	< 500	CCS(=O)(=O)c1ccc(Oc2ccc(CN3CCC4(CCN(c5ccc(C(=O)N[C@H]6CC[C@H](Oc7ccc(C#N)c(Cl)c7)CC6)nn5)C4)C3)c(F)c2)c(-c2cn(C)c(=O)c3[nH]ccc23)c1 (stereo partly drawn) [I-75]	< 500	< 500
–	–	< 500	< 500	Cn1cc(-c2cc(C(C)(C)O)ccc2Oc2ccc(CC3CC4(CCN(c5ccc(C(=O)N[C@H]6CC[C@H](Oc7ccc(C#N)c(Cl)c7)CC6)nn5)CC4)C3)cc2)c2cc[nH]c2c1=O [I-130]	< 500	< 500

Compound	GI50 [1] [nM]	GI50 [3] [nM]	GI50 ([1]; Homo sapiens) [nM]	GI50 ([3]; Homo sapiens) [nM]	GI50 [2] [nM]	GI50 [4] [nM]
Cn1cc(-c2cc(N3CCCCS3(=O)=O)ccc2Oc2ccc(CCC3CCN(c4ccc(C(=O)NC5CCC(Oc6ccc(C#N)c(Cl)c6)CC5)nn4)CC3)cc2)c2cc[nH]c2c1=O (stereo not drawn) [I-246, N-[4-(3-chloro-4-cyano-phenoxy)cyclohexyl]-6-[4-[2-[4-[4-(1,1-dioxothiazinan-2-yl)-2-(6-methyl-7-oxo-1H-pyrrolo[2,3-c]pyridin-4-yl)phenoxy]phenyl]ethyl]-1-piperidyl]pyridazine-3-carboxamide]	< 500	< 500	–	–	< 500	< 500
Cn1cc(-c2cc(C3CCCS3(=O)=O)ccc2OC2CC(OCC3CCN(c4ccc(C(=O)NC5CCC(Oc6ccc(C#N)c(Cl)c6)CC5)nn4)CC3)C2)c2cc[nH]c2c1=O (stereo not drawn) [I-245, N-[4-(3-chloro-4-cyano-phenoxy)cyclohexyl]-6-[4-[[3-[4-(1,1-dioxothiolan-2-yl)-2-(6-methyl-7-oxo-1H-pyrrolo[2,3-c]pyridin-4-yl)phenoxy]cyclobutoxy]methyl]-1-piperidyl]pyridazine-3-carboxamide]	–	–	< 500	< 500	< 500	< 500
